For this test, the target named is T1, hPRB and SMRT (Homo sapiens, UniProt P06401).
T1 construct: expressed in transfected cells; host or cells: HEK 293T
T1 sequence (P06401 1-933): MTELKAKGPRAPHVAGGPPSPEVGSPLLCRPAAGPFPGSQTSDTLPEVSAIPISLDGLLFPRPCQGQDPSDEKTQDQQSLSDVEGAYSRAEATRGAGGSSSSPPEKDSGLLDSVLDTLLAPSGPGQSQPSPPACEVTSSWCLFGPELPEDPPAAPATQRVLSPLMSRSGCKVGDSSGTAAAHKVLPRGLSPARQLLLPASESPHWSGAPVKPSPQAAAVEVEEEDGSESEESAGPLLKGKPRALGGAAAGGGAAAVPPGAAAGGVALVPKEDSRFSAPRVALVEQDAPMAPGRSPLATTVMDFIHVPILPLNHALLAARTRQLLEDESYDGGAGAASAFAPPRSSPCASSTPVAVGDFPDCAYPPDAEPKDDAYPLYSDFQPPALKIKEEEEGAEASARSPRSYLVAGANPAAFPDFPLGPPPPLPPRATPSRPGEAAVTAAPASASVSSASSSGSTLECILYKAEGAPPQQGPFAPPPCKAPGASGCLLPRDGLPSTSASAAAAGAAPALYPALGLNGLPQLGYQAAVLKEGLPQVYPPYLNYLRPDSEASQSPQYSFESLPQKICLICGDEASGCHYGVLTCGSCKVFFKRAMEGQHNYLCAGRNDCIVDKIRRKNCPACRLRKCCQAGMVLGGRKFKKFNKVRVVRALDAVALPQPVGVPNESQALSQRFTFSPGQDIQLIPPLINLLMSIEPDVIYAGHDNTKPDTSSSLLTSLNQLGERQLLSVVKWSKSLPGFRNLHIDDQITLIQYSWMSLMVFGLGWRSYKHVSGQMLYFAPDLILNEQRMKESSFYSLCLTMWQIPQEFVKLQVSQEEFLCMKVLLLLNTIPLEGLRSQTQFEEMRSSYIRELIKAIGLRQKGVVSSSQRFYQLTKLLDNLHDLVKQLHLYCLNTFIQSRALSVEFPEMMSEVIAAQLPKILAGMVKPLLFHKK
Briefly: Mammalian two hybrid assay, recruitment of co-repressor SMRT by hPRB. The class given is cell-based. To be noted: HEK293T, FIGS. 13 and 14. The procedure: Mammalian Two Hybrid Assays.
To investigate whether hPR was able to recruit transcriptional corepressors upon APRn binding, two hybrid assays have been performed in HEK 293T cells. Cell transfection were carried out according to the protocol used for the PR transactivation assays, with 1 μg of pGAL4-SMRT or pGAL4-NcoR, 2.5 μg of the PR expression vector pV16-PR and 5 μg of the reporter pG5-luc. The plasmid pGAL4-SMRT and pGAL4-NcoR, provided by P. Balaguer, encode the fusion protein between the GAL4 DNA-binding domain (GAL4DBD) and the receptor interacting domain (RID) of the corepressor […], respectively. The expression vector pV16PR encodes the VP16 activation domain of herpes simplex virus fused to the entire hPR and pG5-luc, provided by P. Fuller, encodes the luciferase gene driven by a GAL4-responsive promoter. […] Cell transfection were carried out according to the PR transactivation assays, by using 2 μg of pM-TIF2/Nter-RID or […], 2 μg of the expression vector pV16PR and 5 μg of the reporter pG5luc. The plasmids pM-TIF2/Nter-RID encodes the fusion proteins between the GAL4 DBD and the 1-867 TIF2 sequence corresponding to the Nter and RID domains. The plasmids pMTIF2-Nter encodes the fusion proteins between the GAL4 DBD and the 1-623 TIF2 sequence corresponding to the Nter domain. After 16 h incubation, the transfected cells were washed with PBS containing 2.5 mM EDTA, trypsinized and replated in 24-well plates. […] Cells were lysed and the luciferase and activities were quantified by using a Mithras reader microplates (Berthold).
Both agonist- and antagonist-bound PR regulate gene transcription with the assistance of transcriptional co-repressors (NCoR, SMRT) or co-activators (namely, TIF-2). To characterize the mechanism by which APRn inactivate hPRB, the capacity of hPRB to recruit transcriptional co-regulators upon APRn binding has been evaluated. […]
Turning to `CC(=O)[C@H]1CC[C@H]2[C@@H]3CC=C4C[C@@H](F)CC[C@]4(C)[C@H]3CC[C@]12C` [APR-16, 3β-Fluoropregn-5-en-20-one], the “recruitment of co-repressor SMRT by hPRB upon ligand binding” value (shortened to “recruitment of co-repressor SMRT”) is “unable to recruit”.
Turning to `C[C@]12CCC3C(CC=C4C[C@@H](F)CC[C@@H]43)C1CCC2=O` (stereo partly drawn) [APR-47, 3β-Fluoro-19-nor-androst-5-en-17-one], the “recruitment of co-repressor SMRT” value is “unable to recruit”.
As for `CC#C[C@]1(O)CCC2C3CC[C@H]4CCCC[C@@H]4C3CC[C@@]21C` (stereo partly drawn) [APR-54, 17α-(1-Propynyl)-19-nor-5-androstan-17β-ol], the “recruitment of co-repressor SMRT” value is reported as “unable to recruit”.

Source of the values: patent publication US20130203718A1 (priority 2010, published 2013).
